In brackets after ≈: the same amount, converted by molar mass. Several values for one entry are separate records, joined by “and”; a condition that tells them apart may be missing. Identical values can stand only once. Like-named read-outs stand apart in the source and are kept apart here. Each block holds one compound with its values, some of them ahead of it.
Assays:
Cryptococcus neoformans = experiment: Susceptibility assay (MIC, broth microdilution, CLSI M27); type: cell-based; settings: for MIC: Cryptococcus neoformans, ATCC208821, 72 h, 72 h
Candida auris = experiment: as above; type: cell-based; settings: for resistance of strain to antifungal (breakpoint): C. auris ATCC MYA-5001, CLSI/EUCAST breakpoints; for MIC: Candidozyma auris, 24 h
Candida albicans = experiment: as above; type: cell-based; settings: for MIC: 24 h
[1] = test system: Aspergillus fumigatus spores; experiment: Susceptibility assay for sporulating fungi (MIC, EUCAST E.Def.9.4); type: cell-based; settings: for MIC: ATCC1022, Aspergillus fumigatus ATCC 1022 spores
[2] = test system: C. neoformans (ATCC208821); type: cell-based, Cryptococcus neoformans; settings: C. neoformans; daily exposure to 1/10th of MIC; by passage 5
C. auris (MYA-5001) = type: cell-based, Candida auris; settings: C. auris; daily exposure to 1/10th of MIC; by passage 5
[3] = Cryptococcus neoformans ATCC 208821
[4] = Cryptococcus neoformans ATCC MYA-4566
[5] = Cryptococcus neoformans ATCC MYA-4567

SMILES: NCCCNCCCCNCCCN [SPER, spermine, reference compound]
MIC of base scaffold (Cryptococcus neoformans; [3]): 5000 µg/mL
MIC of base scaffold (Cryptococcus neoformans; [4]): 2500 µg/mL
MIC of base scaffold (Cryptococcus neoformans; [5]): 2500 µg/mL
MIC of base scaffold (Candida auris; Candida auris ATCC MYA-5000): > 20000 µg/mL
MIC of base scaffold (Candida auris; Candida auris ATCC MYA-5001): > 20000 µg/mL
MIC of base scaffold (Candida auris; Candida auris ATCC MYA-5003): > 20000 µg/mL
MIC of base scaffold (Candida albicans; Candida albicans ATCC 14053): 20000 µg/mL
MIC of base scaffold (Candida albicans; Candida albicans ATCC 18804): > 20000 µg/mL
MIC of base scaffold (Candida albicans; Candida albicans ATCC MYA-2876): > 20000 µg/mL

SMILES: NCCCNCCCN [DPTA, bis(3-aminopropyl) amine, reference compound]
MIC of base scaffold (Cryptococcus neoformans): 5000 µg/mL and 2500 µg/mL
MIC of base scaffold (Candida auris): > 20000 µg/mL
MIC of base scaffold (Candida albicans): 20000 µg/mL

SMILES: C[C@@H]1[C@H](O)[C@@H](C)/C=C/C=C/C=C/C=C/C=C/C=C/C=C/[C@H](O[C@@H]2O[C@H](C)[C@@H](O)[C@H](N)[C@@H]2O)C[C@@H]2O[C@](O)(C[C@@H](O)C[C@@H](O)[C@H](O)CC[C@@H](O)C[C@@H](O)CC(=O)O[C@H]1C)C[C@H](O)[C@H]2C(=O)O [amphotericin B, reference compound]
MIC (Cryptococcus neoformans; [3]): 0.195 µg/mL (≈ 0.211 µM)
MIC (Candida auris; Candida auris ATCC MYA-5001): 0.5 µg/mL (≈ 0.541 µM)
resistance of strain to antifungal (breakpoint) ([1]; A. fumigatus ATCC 1022, CLSI/EUCAST breakpoints): resistant
MIC [1]: 2.5 µg/mL (≈ 2.71 µM)
MIC (Candida albicans; Candida albicans ATCC MYA-2876): 0.25 µg/mL (≈ 0.271 µM)

SMILES: Nc1nc(=O)[nH]cc1F [5-fluorocytosine, reference compound]
increase of MIC and MFC values after serial passaging [2]: over 256 fold
MIC (Cryptococcus neoformans; [3]): 4 µg/mL (≈ 31 µM)
MIC (Candida auris; Candida auris ATCC MYA-5001): 2 µg/mL (≈ 15.5 µM)
MIC [1]: > 62.5 µg/mL
increase of MIC and MFC values after serial passaging (C. auris (MYA-5001)): over 256 fold
MIC (Candida albicans; Candida albicans ATCC MYA-2876): 0.125 µg/mL (≈ 0.968 µM)

SMILES: NCCNCCN [DETA, Diethylenetriamine, reference compound]
MIC of base scaffold (Cryptococcus neoformans; [3]): > 20000 µg/mL
MIC of base scaffold (Cryptococcus neoformans; [4]): > 20000 µg/mL
MIC of base scaffold (Cryptococcus neoformans; [5]): 10000 µg/mL
MIC of base scaffold (Candida auris; Candida auris ATCC MYA-5000): > 20000 µg/mL
MIC of base scaffold (Candida auris; Candida auris ATCC MYA-5001): > 20000 µg/mL
MIC of base scaffold (Candida auris; Candida auris ATCC MYA-5003): > 20000 µg/mL
MIC of base scaffold (Candida albicans; Candida albicans ATCC 14053): > 20000 µg/mL
MIC of base scaffold (Candida albicans; Candida albicans ATCC 18804): > 20000 µg/mL
MIC of base scaffold (Candida albicans; Candida albicans ATCC MYA-2876): > 20000 µg/mL

SMILES: CN(Cc1ccc(C(C)(C)C)cc1)Cc1cccc2ccccc12 [butenafine, reference compound]
MIC (Cryptococcus neoformans; [3]): 0.3 µg/mL (≈ 0.945 µM)
MIC (Candida auris; Candida auris ATCC MYA-5001): > 4000 µg/mL
MIC [1]: > 500 µg/mL
MIC (Candida albicans; Candida albicans ATCC MYA-2876): > 4000 µg/mL

Further lines, with some results ahead:

MIC (Cryptococcus neoformans; [3]): 32 µg/mL (≈ 29.3 µM)
MIC (Candida auris; Candida auris ATCC MYA-5001): > 32 µg/mL
MIC [1]: 125 µg/mL (≈ 114 µM)
MIC (Candida albicans; Candida albicans ATCC MYA-2876): 0.25 µg/mL (≈ 0.229 µM)
SMILES: CC[C@H](C)C[C@H](C)CCCCCCCCC(=O)N[C@H]1C[C@@H](O)[C@@H](NCCN)NC(=O)[C@@H]2[C@@H](O)CCN2C(=O)[C@H]([C@H](O)CCN)NC(=O)[C@H]([C@H](O)[C@@H](O)c2ccc(O)cc2)NC(=O)[C@@H]2C[C@@H](O)CN2C(=O)[C@H]([C@@H](C)O)NC1=O [caspofungin, reference compound]
resistance of strain to antifungal (breakpoint) (Candida auris): resistant

MIC (Cryptococcus neoformans; [3]): 4 µg/mL (≈ 13.1 µM)
MIC (Candida auris; Candida auris ATCC MYA-5001): > 32 µg/mL
MIC [1]: > 125 µg/mL
MIC (Candida albicans; Candida albicans ATCC MYA-2876): > 32 µg/mL
SMILES: OC(Cn1cncn1)(Cn1cncn1)c1ccc(F)cc1F [fluconazole, reference compound]
resistance of strain to antifungal (breakpoint) (Candida auris): resistant
resistance of strain to antifungal (breakpoint) (Candida albicans; C. albicans ATCC MYA-2876, CLSI/EUCAST breakpoints): resistant

MIC (Cryptococcus neoformans; [3]): 0.5 µg/mL (≈ 1.2 µM)
MIC (Candida auris; Candida auris ATCC MYA-5001): 4 µg/mL (≈ 9.61 µM)
MIC [1]: > 500 µg/mL
MIC (Candida albicans; Candida albicans ATCC MYA-2876): 60 µg/mL (≈ 144 µM)
SMILES: Clc1ccc(COC(Cn2ccnc2)c2ccc(Cl)cc2Cl)c(Cl)c1 (stereo not drawn) [miconazole, reference compound]

Source: paper PMC11121837, “Impact of Nitric Oxide-Release Kinetics on Antifungal Activity” (Journal of Fungi, 2024)
